# Tests used:
# JCV Mad-4 = test: Extracellular JCV load in JCV-infected astrocyte cells (qPCR); assay type: cell-based; conditions: in the presence of CMX001
# Experimental: FIG. 17 illustrates the effect of increasing concentrations of CMX001 on extracellular viral load in astrocytes. Supernatants from JCV-infected PDA cells treated with indicated concentrations of CMX001 were harvested at indicated timepoints after infection and JCV load measured by qPCR. Data are presented as JCV load in log geq/ml. COS-7 or astrocyte cells were infected at a confluence of 60-70% with JCV(Mad-4) at an estimated TCID50 of 0.2. After 2 h incubation at 37° C., supernatants were replaced with fresh medium without or with increasing concentration CMX001. […] JCV loads were quantified after DNA extraction from 100 ul cell culture supernatants and the Corbett X-tractor Gene and the Corbett VX reagents (Qiagen, Hombrechtikon, Switzerland). The real-time PCR protocol for detection of JCV DNA samples targets the JCV large T coding sequence and has been described elsewhere (5). To examine the effect of CMX001 on JCV progeny levels over time, supernatants of treated and untreated cells were harvested at the indicated timepoints. To determine input virus samples were taken at 1 d.p.i. In the course of the infection for untreated cells, the extracellular JCV load changes approximately 1 log over the period of 7 days (3.22×107 vs 2.30×108 geq/ml).
# tumor cell lines = test: Cell proliferation assay (MTS or SRB), panel of human tumor cell lines; assay type: cell-based; conditions: 22 tumor cell lines, read-out: IC50 values in the tumor cell lines (range over panel)
# Experimental: The cell growth inhibitory activities of CMX001, Cidofovir, and a standard agent (varies depending on the tumor type of the cell lines) were evaluated in a panel of cell lines derived from multiple tumor types using a MTS or SRB based cell proliferation assay.
# In vitro cell proliferation assays were performed using a 96-well plate based MTSassay (CellTiter 96° AqueousOne Solution Cell Proliferation Assay, Promega) or SRB (Sulforhodamine-B) assay (1-3). Briefly, cells were plated in 100 μl medium on day 0 in 96-well microtiter plates (Falcon #3072). […]
# After incubation for 3 days at 37° C. in a humidified incubator, viable cells were measured either by MTS or SRB assay. For MTS assay, 20 μl of a 20:1 mixture of (3-(4,5-dimethylthiazol-2-yl)-5-(3-carboxymethoxyphenyl)-2-(4-sulfophenyl)-2H-tetrazolium, inner salt (MTS, 2 mg/ml) and an electron coupling reagent, phenazine methosulfate (PMS, 0.92 mg/ml in DPBS), was added to each well and incubated for 3 hours at 37° C. Absorbance was measured using a BioTek Synergy™ HT Multiple Detection microplate reader at 490 nm. For SRB assay, cells were fixed in situ with 50 μL of cold trichloroacetic acid (TCA, final concentration at 10% w/v) for 60 minutes. Cells were then washed 5 times with H2O and air-dried. […]
# Raw data were acquired using a BioTek Synergy™ HT Multiple Detection microplate reader and imported into Microsoft Excel for analysis. […]
compound,measurement,setting,value
CCCCCCCCCCCCCCCCOCCCOP(=O)(O)CO[C@H](CO)Cn1ccc(N)nc1=O [CMX001],change in JCV load over 7 days,JCV Mad-4,less than 1 log
same,IC50,tumor cell lines,6.6 to 100 µM

# Source: patent publication US20120164104A1, “Composition and Methods of Treating Viral Infections and Viral Induced Tumors” (Chimerix, Inc., priority 2009, published 2012)
